# From PMC10714400, “Antimicrobial Peptide–Peptoid Hybrids with and without Membrane Disruption” (ACS Infectious Diseases, 2023)
# Where two headings read alike, the source gives them in different places. Where a SMILES comes first, the peptide text is derived from it. [ ]: non-standard residue; d: D form. Nleu = CC(C)CNCC(=O)O; Nlys = NCCCCNCC(=O)O
# Legend:
# [1] = tested on: E. coli W3110
# Procedure: (§1) Antimicrobial activity was assayed for all the peptide–peptoids against P. aeruginosa PAO1, K. pneumoniae NCTC418, E. coli W3110, A. baumannii ATCC 19606, methicillin-resistant S. aureus COL (MRSA), and for selected peptides on P. aeruginosa PA14 and the polymyxin-B-resistant derivatives PA14 4.13, PA14 4.18, PA14 2P4, as well as the clinical isolates ZEM-1A and ZEM9A, K. pneumoniae OXA-48, S. aureus Newman, Enterobacter cloacae, Stenotrophomonas maltophilia, Burkholderia cenocepacia, and Staphylococus epidermidis. To determine the Minimal Inhibitory Concentration (MIC), the Broth Microdilution method was used.[72] A colony of bacteria was picked and grown in LB medium overnight at 37 °C.
# (§2) To each well was finally added 4 μL of the diluted bacterial suspension (see above), corresponding to approximately 5 × 10^5 CFU. For each test, two columns of the plate were kept for sterility control (medium only), growth control (medium with bacterial inoculum, no compound). The positive control, Polymyxin B (starting with a concentration of 16 μg/mL) in MH medium with bacterial inocula, was introduced in the two lines of the plate. The plates were incubated at 37 °C for ca. 18 h under static conditions. Next, 15 μL of 3-(4,5-dimethylthiazol-2-yl)-2,5-diphenyltetrazolium bromide (MTT)[73] (1 mg/mL in sterilized MilliQ deionized water) were added to each well, and the plates were incubated for 20–30 min at room temperature. The minimal inhibitory concentration (MIC) was defined as the lowest concentration of the compound that inhibits the visible growth of the tested bacteria (yellow) with the unaided eye.
# [2] = tested on: PA14 4.18 (pmrB); conditions: CSV; […] MH at pH 8.5
# Procedure: as §1, §2
# [3] = tested on: A. baumannii ATCC19606; conditions: for MIC A. baumannii ATCC19606, full MH at pH 7.4 / MIC A. baumannii ATCC19606, full MH at pH 8.5: ATCC19606, 4 h
# Procedure: as §1, §2
# [4] = tested on: K. pneumoniae NCTC418
# Procedure: as §1, §2
# [5] = tested on: PA14 2P4 (pmrB); conditions: CSV; […] MH at pH 8.5
# Procedure: as §1, §2
# [6] = tested on: PA14 4.13 (phoQ); conditions: […] MH at pH 8.5; for MIC P. aeruginosa PA14 4.13, […] MH at pH 8.5: CSV
# Procedure: as §1, §2
# [7] = tested on: S. aureus COL (MRSA)
# Procedure: as §1, §2
# [8] = tested on: P. aeruginosa PAO1; conditions: for MIC P. aeruginosa PAO1, full MH at pH 7.4 / MIC P. aeruginosa PAO1, full MH at pH 8.5: PAO1, 4 h
# Procedure: as §1, §2
# [9] = tested on: human red blood cells (hRBC); experiment: Minimum hemolytic concentration (MHC); assay type: cell-based
# Excerpt: We also measured minimal hemolysis concentrations (MHC) on human red blood cells by serial 2-fold dilution as an indication of toxicity against eukaryotic cells (Table 1).
# [10] = tested on: P. aeruginosa PA14; conditions: Table S3; […] MH at pH 8.5, 16-20 hours at 37 °C
# Procedure: as §1
# as §2, with “The plates were incubated at 37 °C for ca. 18 h under static conditions.” left out
# [11] = tested on: S. aureus Newman; conditions: Table S3; […] MH at pH 8.5
# Procedure: as §1
# as §2, with “The plates were incubated at 37 °C for ca. 18 h under static conditions.” left out
# [12] = Circular dichroism, α-helical content; assay type: physicochemical; conditions: 0.1 mg/mL; for CD %α with 5 mM DPC: 10 mM phosphate buffer pH 7.4, 5 mM DPC; for CD %α with 20% TFE: 10 mM phosphate buffer pH 7.4, 20% TFE
compound,measurement,setting,value
"CC(C)C[C@H](NC(=O)[C@H](CC(C)C)NC(=O)[C@H](CC(C)C)NC(=O)CN(CCCCN)C(=O)[C@H](CC(C)C)NC(=O)[C@H](CC(C)C)NC(=O)CN(CCCCN)C(=O)[C@H](CC(C)C)NC(=O)[C@H](CC(C)C)NC(=O)CN(CCCCN)C(=O)CNCCCCN)C(N)=O [EB7, kkLLkLLkLLL] (H-[Nlys][Nlys]LL[Nlys]LL[Nlys]LLL-NH2)","MIC E. coli W3110, […] MH at pH 7.4",[1]; CSV,4 ug/mL
same,"MIC E. coli W3110, […] MH at pH 8.5",[1]; CSV,1 ug/mL
same,"MIC E. coli W3110, full MH at pH 7.4",[1]; CSV,16 ug/mL
same,"MIC E. coli W3110, full MH at pH 8.5","[1]; CSV, full MH at pH 8.5",4 ug/mL
same,MIC E. coli W3110 […],"[1]; diluted MH ([…] MH, pH 8.5) per Table 1 footnote b, 16–20 h at 37 °C",4 µg/mL
same,MIC E. coli W3110 Full,"[1]; full MH, pH 7.4, 16–20 h at 37 °C",16 µg/mL
same,"MIC P. aeruginosa PA14 4.18, […] MH at pH 8.5",[2],8 ug/mL
same,"MIC A. baumannii ATCC19606, full MH at pH 7.4",[3]; pH 7.4,>32 ug/mL
same,"MIC A. baumannii ATCC19606, full MH at pH 8.5",[3]; pH 8.5,4 ug/mL
same,MIC A. baumannii ATCC19606 Full,"[3]; ATCC19606, pH 7.4",>32 µg/mL
same,"MIC K. pneumoniae NCTC418, full MH at pH 7.4","[4]; NCTC418, 4 h, pH 7.4",>32 ug/mL
same,"MIC K. pneumoniae NCTC418, full MH at pH 8.5","[4]; NCTC418, 4 h, pH 8.5",4 ug/mL
same,"MIC P. aeruginosa PA14 2P4, […] MH at pH 8.5",[5],16 ug/mL
same,"MIC P. aeruginosa PA14 4.13, […] MH at pH 8.5",[6],4 ug/mL
same,"MIC S. aureus COL (MRSA), full MH at pH 7.4","[7]; COL, 4 h, pH 7.4",>32 ug/mL
same,MIC S. aureus COL (MRSA) Full MH 8.5,"[7]; COL, 4 h, pH 8.5",4 to 8 µg/mL
same,"MIC S. aureus COL (MRSA), full MH at pH 8.5","[7]; COL, 4 h, pH 8.5",6 ug/mL
same,MIC S. aureus COL (MRSA) Full,"[7]; COL, pH 7.4",>32 µg/mL
same,"MIC P. aeruginosa PAO1, full MH at pH 7.4",[8]; pH 7.4,32 ug/mL
same,"MIC P. aeruginosa PAO1, full MH at pH 8.5",[8]; pH 8.5,8 ug/mL
same,Hemolysis,[9],none of them showed any measurable hemolysis
same,MHC,[9],>2000 µg/mL
CC(C)C[C@H](NC(=O)[C@H](CC(C)C)NC(=O)[C@H](CCCCN)NC(=O)[C@@H](N)CCCCN)C(=O)N[C@@H](CCCCN)C(=O)N[C@@H](CC(C)C)C(=O)N[C@@H](CC(C)C)C(=O)N[C@@H](CCCCN)C(=O)N(CC(=O)N(CC(=O)N(CC(N)=O)CC(C)C)CC(C)C)CC(C)C [EB3] (H-KKLLKLLK[Nleu][Nleu][Nleu]-NH2),MIC P. aeruginosa PA14,[10],4 µg/mL
same,MIC S. aureus Newman,[11],4 µg/mL
same,"MIC E. coli W3110, […] MH at pH 7.4",[1]; CSV,4 ug/mL
same,"MIC E. coli W3110, […] MH at pH 8.5",[1]; CSV,3 ug/mL
same,"MIC E. coli W3110, full MH at pH 7.4",[1]; CSV,>32 ug/mL
same,MIC E. coli W3110 […] 7.4,"[1]; Table S2, […] MH, pH 7.4",4 µg/mL
same,MIC E. coli W3110 […] 8.5,"[1]; Table S2, […] MH, pH 8.5",2 to 4 µg/mL
same,MIC E. coli W3110 Full MH 7.4,"[1]; Table S2, full MH, pH 7.4",> 32 µg/mL
same,MIC E. coli W3110 Full MH 8.5,"[1]; Table S2, full MH, pH 8.5",16 µg/mL
same,"MIC P. aeruginosa PA14 4.18, […] MH at pH 8.5",[2],8 ug/mL
same,"MIC A. baumannii ATCC19606, full MH at pH 7.4",[3]; pH 7.4,>32 ug/mL
same,"MIC A. baumannii ATCC19606, full MH at pH 8.5",[3]; pH 8.5,>32 ug/mL
same,MIC A. baumannii ATCC19606 […] 7.4,"[3]; Table S2, […] MH, pH 7.4",32 µg/mL
same,MIC A. baumannii ATCC19606 […] 8.5,"[3]; Table S2, […] MH, pH 8.5",16 µg/mL
same,MIC A. baumannii ATCC19606 Full MH 7.4,"[3]; Table S2, full MH, pH 7.4",> 32 µg/mL
same,MIC A. baumannii ATCC19606 Full MH 8.5,"[3]; Table S2, full MH, pH 8.5",> 32 µg/mL
same,"MIC K. pneumoniae NCTC418, full MH at pH 7.4","[4]; NCTC418, 4 h, pH 7.4",>32 ug/mL
same,MIC K. pneumoniae NCTC418 […] 7.4,"[4]; Table S2, […] MH, pH 7.4",> 32 µg/mL
same,MIC K. pneumoniae NCTC418 […] 8.5,"[4]; Table S2, […] MH, pH 8.5",16 µg/mL
same,MIC K. pneumoniae NCTC418 Full MH 7.4,"[4]; Table S2, full MH, pH 7.4",> 32 µg/mL
same,MIC K. pneumoniae NCTC418 Full MH 8.5,"[4]; Table S2, full MH, pH 8.5",32 µg/mL
same,"MIC P. aeruginosa PA14 2P4, […] MH at pH 8.5",[5],16 ug/mL
same,"MIC P. aeruginosa PA14 4.13, […] MH at pH 8.5",[6],6 ug/mL
same,MIC P. aeruginosa PA14 4.13,[6]; Table S3,4 to 8 µg/mL
same,"MIC S. aureus COL (MRSA), full MH at pH 7.4","[7]; COL, 4 h, pH 7.4",>32 ug/mL
same,"MIC S. aureus COL (MRSA), full MH at pH 8.5","[7]; COL, 4 h, pH 8.5",32 ug/mL
same,MIC S. aureus COL (MRSA) […] 7.4,"[7]; Table S2, […] MH, pH 7.4",32 µg/mL
same,MIC S. aureus COL (MRSA) […] 8.5,"[7]; Table S2, […] MH, pH 8.5",8 µg/mL
same,MIC S. aureus COL (MRSA) Full MH 7.4,"[7]; Table S2, full MH, pH 7.4",> 32 µg/mL
same,MIC S. aureus COL (MRSA) Full MH 8.5,"[7]; Table S2, full MH, pH 8.5",32 µg/mL
same,"MIC P. aeruginosa PAO1, full MH at pH 7.4",[8]; pH 7.4,>32 ug/mL
same,"MIC P. aeruginosa PAO1, full MH at pH 8.5",[8]; pH 8.5,16 ug/mL
same,MIC P. aeruginosa PAO1 […] 7.4,"[8]; Table S2, […] MH, pH 7.4",16 µg/mL
same,MIC P. aeruginosa PAO1 […] 8.5,"[8]; Table S2, […] MH, pH 8.5",4 µg/mL
same,MIC P. aeruginosa PAO1 Full MH 7.4,"[8]; Table S2, full MH, pH 7.4",> 32 µg/mL
same,MIC P. aeruginosa PAO1 Full MH 8.5,"[8]; Table S2, full MH, pH 8.5",16 µg/mL
same,Hemolysis,[9],none of them showed any measurable hemolysis
same,MHC,[9],>2000 µg/mL
same,CD %α with 5 mM DPC,"[12]; DichroWeb, Contin-LL",13%
same,CD %α with 20% TFE,"[12]; DichroWeb, Contin-LL",15%
same,CD %α with 5 mM DPC,[12]; Table S2,13%
same,CD %α with 20% TFE,[12]; Table S2,15%
